Assay: clinical
Conditions: for Cmax / Tmax / AUC(0-t): human
Experimental: Clinical Trial Outline. […] All solid tumor types are eligible for the trial. […] An expansion cohort was included at the RP2D level to confirm safety and tolerability of the combination. […] In Part 2, patients were treated by giving both agents twice daily (BID dosing schedule).
Plasma samples were analyzed for AMXT 1501 concentration via a LC/MS^2 procedure (MI-0028-DB-AB; Agilux Laboratories, Worcester, Massachusetts), and the resulting concentration versus time data were used to estimate individual PK parameters using noncompartmental analysis (NCA).

[1] = Part 1 Cohort 1, 80 mg QD, Cycle 1 Day 1
[2] = Part 1 Cohort 1, 80 mg QD, Cycle 1 Day 14
[3] = Part 1 Cohort 1, 80 mg QD, Cycle 1 Day 28, +DFMO 500 mg/day
[4] = Part 1 Cohort 2, 160 mg QD, Cycle 1 Day 1
[5] = Part 1 Cohort 2, 160 mg QD, Cycle 1 Day 14
[6] = Part 1 Cohort 2, 160 mg QD, Cycle 1 Day 28, +DFMO 500 mg/day
[7] = Part 1 Cohort 3, 400 mg QD, Cycle 1 Day 14
[8] = Part 1 Cohort 3, 400 mg QD, Cycle 1 Day 28, +DFMO 500 mg/day
[9] = Part 1 Cohort 3, 400 mg QD, Day 1
[10] = Part 1 Cohort 4, 1200 mg QD, Cycle 1 Day 1
[11] = Part 1 Cohort 4, 1200 mg QD, Cycle 1 Day 14
[12] = Part 1 Cohort 5, 1800 mg QD, Cycle 1 Day 1
[13] = Part 1 Cohort 5, 1800 mg QD, Cycle 1 Day 14
[14] = Part 1 Cohort 5, 1800 mg QD, Cycle 1 Day 28, +DFMO 500 mg/day
[15] = Part 1 Cohort 5, 1800 mg QD, Cycle 2 Day 14, n=1

SMILES: CCCCCCCCCCCCCCCC(=O)NCCCC[C@@H](N)C(=O)NCCCNCCCCNCCCN [AMXT 1501, D-lys(palmitoyl)-spermine]
- Cohort 5 patient AUC versus mouse plasma AUC at efficacious dose (Cohort 5 patients vs 2.5 mg/kg SC in 4T1 mice): 1.72 times
- Tlast Mean [1]: 13.2 h
- Tlast Median [1]: 6 h
- Tlast Mean [2]: 12 h
- Tlast Median [2]: 6 h
- Tlast Mean [3]: 18 h
- Tlast Median [3]: 24 h
- Tlast Mean [4]: 15 h
- Tlast Median [4]: 15 h
- Tlast Mean [5]: 15 h
- Tlast Median [5]: 15 h
- Tlast Mean [6]: 10.5 h
- Tlast Median [6]: 6 h
- Tlast Mean [7]: 19.5 h
- Tlast Median [7]: 24 h
- Tlast Mean [8]: 24 h
- Tlast Median [8]: 24 h
- Tlast Mean [9]: 25.5 h
- Tlast Median [9]: 24 h
- Tlast Mean [10]: 40 h
- Tlast Median [10]: 24 h
- Tlast Mean [11]: 24 h
- Tlast Median [11]: 24 h
- Tlast Mean [12]: 54 h
- Tlast Median [12]: 60 h
- Tlast Mean [13]: 24 h
- Tlast Median [13]: 24 h
- Tlast Mean [14]: 24 h
- Tlast Median [14]: 24 h
- Tlast Mean [15]: 24 h
- Tlast Median [15]: 24 h
- sustained plasma level versus predicted efficacious concentration (100 nM, 57 ng/mL) (adult patients, 1,200 mg or 800 mg per day, split BID): above this predicted efficacious concentration value
- Cmax (in vivo, 160 mg, Cmax Mean, Part 1 Cohort 2, 160 mg QD, Cycle 1 Day 1): 19.5 ng/mL
- Tmax (in vivo, 1800 mg, Tmax Mean, Part 1 Cohort 5, 1800 mg QD, Cycle 1 Day 1): 10.5 h
- AUC(0-t) (plasma, oral, 80 mg, AUC0-6 hr Mean, Part 1 Cohort 1, 80 mg QD, Cycle 1 Day 1): 29.6 ng·h/mL
- AUC(0-t) (plasma, oral, 80 mg, AUC0-6 hr Mean, Part 1 Cohort 1, 80 mg QD, Cycle 1 Day 14): 91 ng·h/mL
- AUC(0-t) (plasma, oral, 80 mg, AUC0-6 hr Median, Part 1 Cohort 1, 80 mg QD, Cycle 1 Day 1): 29.9 ng·h/mL
- AUC(0-t) (plasma, oral, 80 mg, AUC0-6 hr Median, Part 1 Cohort 1, 80 mg QD, Cycle 1 Day 14): 51.3 ng·h/mL
- AUC(0-t) (plasma, oral, 80 mg, AUC0-t Mean, Part 1 Cohort 1, 80 mg QD, Cycle 1 Day 1): 92 ng·h/mL
- AUC(0-t) (plasma, oral, 80 mg, AUC0-t Mean, Part 1 Cohort 1, 80 mg QD, Cycle 1 Day 14): 262 ng·h/mL
- AUC(0-t) (plasma, oral, 80 mg, AUC0-t Median, Part 1 Cohort 1, 80 mg QD, Cycle 1 Day 1): 45.3 ng·h/mL
- AUC(0-t) (plasma, oral, 80 mg, AUC0-t Median, Part 1 Cohort 1, 80 mg QD, Cycle 1 Day 14): 51.3 ng·h/mL
- Cmax (plasma, oral, 80 mg, Cmax Mean, Part 1 Cohort 1, 80 mg QD, Cycle 1 Day 1): 11.7 ng/mL
- Cmax (plasma, oral, 80 mg, Cmax Mean, Part 1 Cohort 1, 80 mg QD, Cycle 1 Day 14): 26.2 ng/mL
- Cmax (plasma, oral, 80 mg, Cmax Median, Part 1 Cohort 1, 80 mg QD, Cycle 1 Day 1): 10.6 ng/mL
- Cmax (plasma, oral, 80 mg, Cmax Median, Part 1 Cohort 1, 80 mg QD, Cycle 1 Day 14): 13.8 ng/mL
- Tmax (plasma, oral, 80 mg, Tmax Mean, Part 1 Cohort 1, 80 mg QD, Cycle 1 Day 1): 4.8 h
- Tmax (plasma, oral, 80 mg, Tmax Mean, Part 1 Cohort 1, 80 mg QD, Cycle 1 Day 14): 4.67 h
- Tmax (plasma, oral, 80 mg, Tmax Median, Part 1 Cohort 1, 80 mg QD, Cycle 1 Day 1): 4 h
- Tmax (plasma, oral, 80 mg, Tmax Median, Part 1 Cohort 1, 80 mg QD, Cycle 1 Day 14): 4 h
- AUC(0-t) (plasma, oral, 160 mg, AUC0-6 hr Mean, Part 1 Cohort 2, 160 mg QD, Cycle 1 Day 1): 74.8 ng·h/mL
- AUC(0-t) (plasma, oral, 160 mg, AUC0-6 hr Mean, Part 1 Cohort 2, 160 mg QD, Cycle 1 Day 14): 43.4 ng·h/mL
- AUC(0-t) (plasma, oral, 160 mg, AUC0-6 hr Median, Part 1 Cohort 2, 160 mg QD, Cycle 1 Day 1): 67.1 ng·h/mL
- AUC(0-t) (plasma, oral, 160 mg, AUC0-6 hr Median, Part 1 Cohort 2, 160 mg QD, Cycle 1 Day 14): 49.8 ng·h/mL
- AUC(0-t) (plasma, oral, 160 mg, AUC0-t Mean, Part 1 Cohort 2, 160 mg QD, Cycle 1 Day 1): 169 ng·h/mL
- AUC(0-t) (plasma, oral, 160 mg, AUC0-t Mean, Part 1 Cohort 2, 160 mg QD, Cycle 1 Day 14): 105 ng·h/mL
- AUC(0-t) (plasma, oral, 160 mg, AUC0-t Median, Part 1 Cohort 2, 160 mg QD, Cycle 1 Day 1): 130 ng·h/mL
- AUC(0-t) (plasma, oral, 160 mg, AUC0-t Median, Part 1 Cohort 2, 160 mg QD, Cycle 1 Day 14): 59.7 ng·h/mL
- Cmax (plasma, oral, 160 mg, Cmax Mean, Part 1 Cohort 2, 160 mg QD, Cycle 1 Day 14): 14.1 ng/mL
- Cmax (plasma, oral, 160 mg, Cmax Median, Part 1 Cohort 2, 160 mg QD, Cycle 1 Day 1): 17.8 ng/mL
- Cmax (plasma, oral, 160 mg, Cmax Median, Part 1 Cohort 2, 160 mg QD, Cycle 1 Day 14): 16.2 ng/mL
- Tmax (plasma, oral, 160 mg, Tmax Mean, Part 1 Cohort 2, 160 mg QD, Cycle 1 Day 1): 4 h
- Tmax (plasma, oral, 160 mg, Tmax Mean, Part 1 Cohort 2, 160 mg QD, Cycle 1 Day 14): 5 h
- Tmax (plasma, oral, 160 mg, Tmax Median, Part 1 Cohort 2, 160 mg QD, Cycle 1 Day 1): 4 h
- Tmax (plasma, oral, 160 mg, Tmax Median, Part 1 Cohort 2, 160 mg QD, Cycle 1 Day 14): 5 h
- AUC(0-t) (plasma, oral, 400 mg, AUC0-6 hr Mean, Part 1 Cohort 3, 400 mg QD, Cycle 1 Day 14): 289 ng·h/mL
- AUC(0-t) (plasma, oral, 400 mg, AUC0-6 hr Mean, Part 1 Cohort 3, 400 mg QD, Day 1): 183 ng·h/mL
- AUC(0-t) (plasma, oral, 400 mg, AUC0-6 hr Median, Part 1 Cohort 3, 400 mg QD, Cycle 1 Day 14): 304 ng·h/mL
- AUC(0-t) (plasma, oral, 400 mg, AUC0-6 hr Median, Part 1 Cohort 3, 400 mg QD, Day 1): 207 ng·h/mL
- AUC(0-t) (plasma, oral, 400 mg, AUC0-t Mean, Part 1 Cohort 3, 400 mg QD, Cycle 1 Day 14): 957 ng·h/mL
- AUC(0-t) (plasma, oral, 400 mg, AUC0-t Mean, Part 1 Cohort 3, 400 mg QD, Day 1): 714 ng·h/mL
- AUC(0-t) (plasma, oral, 400 mg, AUC0-t Median, Part 1 Cohort 3, 400 mg QD, Cycle 1 Day 14): 1100 ng·h/mL
- AUC(0-t) (plasma, oral, 400 mg, AUC0-t Median, Part 1 Cohort 3, 400 mg QD, Day 1): 906 ng·h/mL
- Cmax (plasma, oral, 400 mg, Cmax Mean, Part 1 Cohort 3, 400 mg QD, Cycle 1 Day 14): 66.4 ng/mL
- Cmax (plasma, oral, 400 mg, Cmax Mean, Part 1 Cohort 3, 400 mg QD, Day 1): 47 ng/mL
- Cmax (plasma, oral, 400 mg, Cmax Median, Part 1 Cohort 3, 400 mg QD, Cycle 1 Day 14): 73.5 ng/mL
- Cmax (plasma, oral, 400 mg, Cmax Median, Part 1 Cohort 3, 400 mg QD, Day 1): 52.5 ng/mL
- Tmax (plasma, oral, 400 mg, Tmax Mean, Part 1 Cohort 3, 400 mg QD, Cycle 1 Day 14): 5 h
- Tmax (plasma, oral, 400 mg, Tmax Mean, Part 1 Cohort 3, 400 mg QD, Day 1): 5 h
- Tmax (plasma, oral, 400 mg, Tmax Median, Part 1 Cohort 3, 400 mg QD, Cycle 1 Day 14): 5 h

Source: patent US20230321012A1 (priority 2021, published 2023)
